Results on 6 compounds are retold here after US8324202B2, “5-phenyl-1H-benzo [E] [1,4] diazepine compounds substituted with an hydroxamic acid group as histone deacetylase inhibitors” (Universita Degli Studi di Firenze, priority 2007, dated 2012).

“And” between values parts separate entries of the source, which are not always exact repeats. Equal entries are not always repeated. Where two headings read alike, the source gives them in different places.

Holding throughout (assay type): cell-based, human
For experiment [1], the system named is acetylated H3 histone. Put plainly: Histone deacetylase inhibition: western blot for acetylated histone H3 in cells incubated 6 hours with drug. As to conditions: for Acetyl-H3 densitometric value: 6 hours, untreated = 1; for HDAC inhibitory / acetylating activity, in words (histone not specified) / H3 histone acetylating activity, in words: summary in description. As to the method: (§1) The new described compounds were tested for their ability to inhibit the histone deacetylase activity by western blot for the acetylated isoforms of histone H3 and H4 and also to induce growth arrest in cancer cells by activating apoptosis and/or cell differentiation. Initially, biological activities of newly synthesized HDACi were assessed by using the human acute promyelocytic leukemia cell line NB4, as the experimental model. Cells were maintained in RPMI (Bio-Whittaker Europe, Verviers, Belgio) supplemented with 10% of fetal calf serum (FCS, Boehringer Mannheim, Germania) and 2 mM glutamine (Merck, Darmstadt, Germania) at 37° C. in a humidified atmosphere of 5% CO2. Cells were counted in a Burker chamber and cells viability was assessed by the trypan blu exclusion test.
(§2) Cells, obtained as described above, were harvested in sterile plates (Falcon, Becton Dickinson, Franklin Lakes, N.J.) at density of 6×10^5/mL, and incubated for 6 hours with increasing drug concentration of single compounds. Then, the cells were lysated with RIPA buffer (50 mM Tris-HCl pH 7.4, 150 mM NaCl, 1% Nonidet P-40, 1 mM EDTA plus protease inhibitor cocktail (Protease Inhibitor Cocktail Set III, n° cat. 539134, Calbiochem, Merck, Darmstadt, Germany) and sonicated (Labsonic 1510) twice for 15s pulses at 1-2 Watts in ice. Protein concentration of cell extracts was determined according to the bicinchoninic acid colorimetric method (BCA, Pierce, Rockford, USA) by using serum bovine albumin as the standard (BSA, Sigma, Steinheim, Germania). Equal amounts of protein (20-40 μg/20-30 μL/well) were separated on NuPAGE Bis-Tris 12% gel (Novex, Invitrogen, Carlsbad, Calif.) 10% and transferred to nitrocellulose membranes (Pro-Bind, pore diameter=0.45 μm; Amersham Pharmacia). Then membranes, incubated in phosphate buffer saline (PBS) with 6% defatted dry milk as blocking solution to saturate unspecific binding sites, were probed overnight at 4° C. with primary antibodies (1;1000 dilution in PBS) raised against acetylated H4 a H3 histone isoforms (Upstate Technologies, Lake Placid, N.Y., USA). […] The experiment was performed with the compound (II) S form, where R1 and R2 can be independently a methyl group or hydrogen.

For experiment [2], the system named is acetylated H4 histone. Put plainly: Histone deacetylase inhibition: western blot for acetylated histone H4 in cells incubated 6 hours with drug. The conditions noted are these: for Acetyl-H4 densitometric value: 6 hours, untreated = 0; for H4 histone acetylating activity, in words: summary in description. As for the experimental part:
as §1, §2
For orientation: Immunoblotting shows a protein as a band on a membrane.

In experiment [3] the test system is NB4 cells. Put plainly: Cytostatic and apoptotic activity, Annexin-V-FLUOS/propidium iodide flow cytometry, 48 hours. The conditions noted are these: for IC50: 48 hours, graphic extrapolation of Annexin-V results, viable cells over control, read-out: IC50 (drug concentration reducing cell density or viability by 50%). As for the experimental part: as §1
Cells, were initially harvested at 4×10^5/mL (3 mL/well) cell density 24 well plate and incubated for 48 hours with increasing drug concentration. All compounds were solubilized in DMSO so that the final concentration of vehicle in culture was lower than 0.1%. At the end of treatment cell viability and apoptosis were evaluated by cytofluorimetric analysis using Anexin-V-Fluos staining (Annexin-V-FLUOS Staining Kit, Roche Molecular Biochemicals, Mannheim, Germany).
Necrotic cells, which are also Annexin-V positive, were identified by using Propidium iodide fluorochrome, that is capable of penetrating cell membranes of dying or dead cells and binding DNA.
Briefly, aliquots of cell suspensions (approximately 10^5 cells) washed in buffer PBS, were resuspended in 5 μl of binding buffer containing annexin V-fluorescein isothiocyanate (FITC) and propidium iodide; incubation was carried out for 15 minutes at room temperature, and cells were then analyzed by flow cytometry (FACScan Becton-Dickinson, San Jose, Calif.).
The IC50 values (i.e. the drug concentration necessary to reduce cell density or viability by 50% as compared to untreated control cultures) obtained by graphic extrapolation of the Anexin-V results and expressed as percentage of viable cells over control were reported In Table 2.
Data represent the percentage of viable cells as the function of drug concentration.

For experiment [4], the system named is NB4 cells. Put plainly: Granulocytic differentiation, cytofluorimetric analysis of CD11b membrane expression, alone or with ATRA. As to conditions: for % of CD11b+ cells: three days. As to the method: Identification of markers of myeloid maturation was determined by flow cytometry by labelling cells with PE-conjugated antibody and FITC-conjugated antibody to CD11b (granulocyte marker) and CD14 (monocyte marker) respectively (Becton-Dickinson). Cell suspension aliquots (1×10^5 cells) were washed with cell wash buffer (Becton-Dickinson) and incubated with antibodies for 30 minutes in ice. After the incubation cells, resuspended in 0.3 mL of buffer containing Actinomycin D (Becton-Dickinson) to evaluate cell viability, were submitted to the cytofluorimetric analysis (FACScan, Becton-Dickinson). Cells incubated with appropriately labeled isotype controls were used to gate nonspecific fluorescence signal.
(§3) • Compounds (II) in racemic form and enantiomers S or R. • Compounds (III) in racemic form and enantiomers S or R. • Compounds (II) with R1 and R2=hydrogen were tested for their capability to synergize with ATRA and for their ability to induce granulocyte differentiation in the human promyelocytic cell line NB4. ATRA at the final concentration of 1 μM is usually employed to induce granulocyte differentiation in NB4 cells.
(§4) NB4 cells were incubated for three days in presence of the compounds listed above, alone or in combination with ATRA. Granulocyte differentiation of leukemic cells was determined by (a) Nitro-Blu tetrazolium (NBT) reduction to dark formazan precipitate (blu positive cells) counting NBT positive cells on Burker chamber and (b) cytofluorimetric analysis of CD11b membrane expression (granulocyte marker, see example 32).

For experiment [5], the system named is NB4 cells. Put plainly: Granulocytic differentiation, NBT reduction assay, alone or with ATRA. As to conditions: for % of NBT+ cells: three days; for effect on granulocytic differentiation / NBT positive cells, in words: alone or in combination with 20 nM ATRA. As to the method: The analysis of functional myeloid differentiation induced by compounds of the invention was accomplished by Nitro-Blu tetrazolium (NBT) reduction assay as described below. Cell suspension (approximately 10^5/mL) were incubated in the presence of 0.25 mg/mL NBT and 500 ng of PMA (Phorbol-12-Myristate 13-acetate) (Sigma) at 37° C. for 30 minutes. Granulocyte or monocyte differentiated cell were capable of reducing NBT to dark formazan precipitate (blu positive cells). NBT positive cells were counted on Burker chamber and expressed as percentage of total cell population.
as §3, §4

Consider `CC1N=C(c2ccccc2)c2cc(NC(=O)CCCCCCC(=O)NO)ccc2N(C)C1=O` (racemic) [Compound (III) racemic with R1 or R2 = Me, N1-hydroxy-N8-(1,3-dimethyl-2-oxo-5-phenyl-2,3-dihydro-1H-1,4-benzo[e][1,4]diazepin-7-yl)octanediamide], for which the Acetyl-H3 densitometric value came to 4.04 arbitrary units in experiment [1] (2 μM), 4.92 arbitrary units in experiment [1] (4 μM) and 5.42 arbitrary units in experiment [1] (10 μM). In addition, the “HDAC inhibitory / acetylating activity, in words (histone not specified)” value in experiment [1] was “good inhibitory activity”. Besides, the Acetyl-H4 densitometric value in experiment [2] (2 μM) is reported as 12.96 arbitrary units; in experiment [2] (4 μM) it was 23.7 arbitrary units; in experiment [2] (10 μM), 28.15 arbitrary units. Moreover, in experiment [3], the IC50 is 4000 nM.

For the compound `CN1C(=O)C(NC(=O)CCCCCCC(=O)NO)N=C(c2ccccc2)c2ccccc21` (racemic) [Compound (IV) racemic, N1-hydroxy-N8-(1-methyl-2-oxo-5-phenyl-2,3-dihydro-1H-benzo[e][1,4]diazepin-3-yl)octanediamide], the values for the Acetyl-H3 densitometric value in experiment [1] (0.5 μM), in experiment [1] (1 μM) and in experiment [1] (2.5 μM) were 2.67 arbitrary units, 3.17 arbitrary units and 3.38 arbitrary units, respectively. Further, the “H3 histone acetylating activity, in words” value in experiment [1] was “reasonably good activity toward H3 histone”. In addition, the Acetyl-H4 densitometric value is listed as 1 arbitrary units in experiment [2] (0.5 μM), 5.78 arbitrary units in experiment [2] (1 μM) and 10.89 arbitrary units in experiment [2] (2.5 μM). Moreover, the “H4 histone acetylating activity, in words” value in experiment [2] is recorded as “good acetylating activity of H4 histone”. Moreover, the IC50 in experiment [3] (Homo sapiens, NB-4) is 570 nM.

As for `CC1=C(/C=C/C(C)=C/C=C/C(C)=C/C(=O)O)C(C)(C)CCC1` [ATRA, all-trans-retinoc acid, reference compound], the “% of CD11b+ cells” value in experiment [4] (20 nM ATRA alone) is 13% and 10%; in experiment [4] (1 μM ATRA alone), 80% and 71.3% and 72%. The “% of NBT+ cells” value is 12% and 15% in experiment [5] (20 nM ATRA alone); 78% and 80% in experiment [5] (1 μM ATRA alone).

Consider `C[C@H]1N=C(c2ccccc2)c2cc(C#CCCCC(=O)NO)ccc2N(C)C1=O` [Compound (II) R form with R1 or R2 = Me, (R)-6-(1,3-dimethyl-2-oxo-5-phenyl-2,3-dihydro-1H-benzo[e][1,4]diazepin-7-yl)-N-hydroxyhex-5-ynamide], for which the results for the Acetyl-H3 densitometric value in experiment [1] (0.5 μM), in experiment [1] (1 μM) and in experiment [1] (2.5 μM) were 2.5 arbitrary units, 2.54 arbitrary units and 3.69 arbitrary units, respectively. The “H3 histone acetylating activity, in words” value in experiment [1] is reported as “good activity toward H3 histone”. The Acetyl-H4 densitometric value in experiment [2] (0.5 μM), in experiment [2] (1 μM) and in experiment [2] (2.5 μM) was 0 arbitrary units in each case. Besides, the “H4 histone acetylating activity, in words” value in experiment [2] is reported as “does not show hyperacetylating activity on H4 histones”. Moreover, the “% of CD11b+ cells” value in experiment [4] (1.5 μM compound + 20 nM ATRA) is 19.8%; in experiment [4] (1.5 μM compound alone), 14.2%. In addition, the “% of NBT+ cells” value is 13.1% in experiment [5] (1.5 μM compound + 20 nM ATRA) and “≦1%” in experiment [5] (1.5 μM compound alone). For the same compound, the “effect on granulocytic differentiation / NBT positive cells, in words” value in experiment [5] was “no appreciable effect on granulocytic differentiation”.

Regarding `CN1C(=O)CN=C(c2ccccc2)c2cc(NC(=O)CCCCCCC(=O)NO)ccc21` [Compound (III) R1 and R2 = hydrogen, N1-(1-methyl-2-oxo-5-phenyl-2,3-dihydro-1H-benzo[e][1,4]diazepin-7-yl)-N8-hydroxyoctanediamide], the Acetyl-H3 densitometric value is listed as 2.84 arbitrary units in experiment [1] (1 μM) and 3.23 arbitrary units in experiment [1] (2 μM). The “HDAC inhibitory / acetylating activity, in words (histone not specified)” value in experiment [1] was “good acetylating and apoptotic activities”. The Acetyl-H4 densitometric value in experiment [2] (1 μM) is 2.39 arbitrary units; in experiment [2] (2 μM), 6.63 arbitrary units. Besides, the IC50 in experiment [3] (Homo sapiens, NB-4) is 3000 nM. Also, the “apoptotic activity, in words” value in experiment [3] (leukemic cells, summary in description) is “good acetylating and apoptotic activities”.

Regarding `C[C@@H]1N=C(c2ccccc2)c2cc(NC(=O)CCCCCCC(=O)NO)ccc2N(C)C1=O` [Compound (III) S form with R1 or R2 = Me, (S)—N-1-(1,3-dimethyl-2-oxo-5-phenyl-2,3-dihydro-1H-benzo[e][1,4]diazepin-7-yl)-N8-hydroxyoctanediamide], the Acetyl-H3 densitometric value in experiment [1] (1 μM) came out at 2.73 arbitrary units; in experiment [1] (2 μM), 2.65 arbitrary units; in experiment [1] (5 μM), 3.61 arbitrary units. The “HDAC inhibitory / acetylating activity, in words (histone not specified)” value in experiment [1] is “good inhibitory activity”. Further, the Acetyl-H4 densitometric value in experiment [2] (1 μM) is 3 arbitrary units; in experiment [2] (2 μM) it was 4.81 arbitrary units; in experiment [2] (5 μM), 12.59 arbitrary units. Moreover, the results for the “% of CD11b+ cells” value in experiment [4] (3 μM compound + 20 nM ATRA) and in experiment [4] (3 μM compound alone) were 7.4% and 26%, respectively. In addition, in experiment [4] (alone or in combination with 20 nM ATRA), the “effect on CD11b positive cells, in words” value was “no increase in CD11b positive cells”. In addition, the “% of NBT+ cells” value came out at 40% in experiment [5] (3 μM compound + 20 nM ATRA) and 3% in experiment [5] (3 μM compound alone). For the same compound, the “effect on granulocytic differentiation / NBT positive cells, in words” value in experiment [5] was “strong synergistic increase of NBT positive cells”.
